In patent publication US20110256236A1 (priority 2010, published 2011):
Read-outs that look alike come from different tables or passages of the source.

How the values were obtained:
KG-1a cells = conditions: 48 hours
Method: The KG-1a cells, which are an early phenotype of human acute myeloid leukemia (American Type Culture Collection, Manassas, Va.), were grown in complete growth medium [Iscove's Modified Dulbeco's Medium (American Type Culture Collection, Manassas, Va.)] supplemented with 20% fetal bovine serum (Sigma-Aldrich, UK) and 1% Penicillin-Streptomycin (GIBCO Invitrogen Corporation, Carlsbad, Calif.) at 37° C. in a humidified 5% CO2 incubator.
The KG-1a cells were cultured for 48 hours in 12-well tissue culture plates, each containing complete growth medium at a concentration of 2×10^6 cells 1 ml, and each well contained a total volume of two milliliters. Thalidomide (TOCRIS Bioscience, Ellisville, Mo.) was added at a concentration of 5 mg/L whether used alone or in combination with other chemotherapeutic agents. Interleukin-2 (Proleukin®, Aldesleuken for injection) (CHIRON Therapeutics, Emeryville, Calif.) was added at a concentration of 200 IU/ml whether used alone or in combination with thalidomide or arsenic trioxide. Arsenic trioxide (Sigma-Aldrich, Inc., St. Louis, Mo.) was added at concentrations of 2 μM and 4 μM with and without 100 μM of ascorbic acid in the first flow cytometry study, and at 4 μM in the rest of the studies either alone or combined with thalidomide and interleukin-2. A control culture containing neither thalidomide nor interleukin-2 nor arsenic trioxide was set up in conditions otherwise identical. All the control and treated cultures were set in duplicate and incubated for 48 hours at 37° C. in a humidified 5% CO2 incubator.
The detection of apoptosis and necrosis by Annex in V-FITC assay using flow cytometric analysis was carried out as described in the Annexin V-FITC Apoptosis Detection Kit (BioVision, Inc., Mountain View, Calif.) manual. Staurosporine (Sigma-Aldrich, Inc., St. Louis, Mo.) was used as a positive control at a concentration of 10 μM and was incubated only for 24 hours with the cells. Briefly, after the KG-1a cells were incubated for 48 hours, they were harvested by centrifugation at 1,300 RPM for five minutes. Cells were resuspended in 500 μl of 1× binding buffer. Then 5 μl of Annexin V-FITC and 5 μl of propidium iodide (PI) were added to all tubes (except the negative control which contained no staining and no treatment; for the Annexin V-FITC controls only the Annexin V-FITC was added; and for the Propidium Iodide control only PI was added). All tubes were incubated at room temperature for five minutes in the dark.
Results were subjected to one way ANOVA. Statistical significant differences between means was set at p<0.05.

PML/RAR-α fusion protein = biological target: T1, PML/RAR-α fusion protein (Homo sapiens, UniProt P10276+P29590); parameters: unit not given here; conditions: NB4 cells; cited from earlier work
T1 construct: host or cells: NB4 cells (endogenous t(15;17) fusion)
T1 sequence (P29590+P10276 with tags, fused parts or gaps): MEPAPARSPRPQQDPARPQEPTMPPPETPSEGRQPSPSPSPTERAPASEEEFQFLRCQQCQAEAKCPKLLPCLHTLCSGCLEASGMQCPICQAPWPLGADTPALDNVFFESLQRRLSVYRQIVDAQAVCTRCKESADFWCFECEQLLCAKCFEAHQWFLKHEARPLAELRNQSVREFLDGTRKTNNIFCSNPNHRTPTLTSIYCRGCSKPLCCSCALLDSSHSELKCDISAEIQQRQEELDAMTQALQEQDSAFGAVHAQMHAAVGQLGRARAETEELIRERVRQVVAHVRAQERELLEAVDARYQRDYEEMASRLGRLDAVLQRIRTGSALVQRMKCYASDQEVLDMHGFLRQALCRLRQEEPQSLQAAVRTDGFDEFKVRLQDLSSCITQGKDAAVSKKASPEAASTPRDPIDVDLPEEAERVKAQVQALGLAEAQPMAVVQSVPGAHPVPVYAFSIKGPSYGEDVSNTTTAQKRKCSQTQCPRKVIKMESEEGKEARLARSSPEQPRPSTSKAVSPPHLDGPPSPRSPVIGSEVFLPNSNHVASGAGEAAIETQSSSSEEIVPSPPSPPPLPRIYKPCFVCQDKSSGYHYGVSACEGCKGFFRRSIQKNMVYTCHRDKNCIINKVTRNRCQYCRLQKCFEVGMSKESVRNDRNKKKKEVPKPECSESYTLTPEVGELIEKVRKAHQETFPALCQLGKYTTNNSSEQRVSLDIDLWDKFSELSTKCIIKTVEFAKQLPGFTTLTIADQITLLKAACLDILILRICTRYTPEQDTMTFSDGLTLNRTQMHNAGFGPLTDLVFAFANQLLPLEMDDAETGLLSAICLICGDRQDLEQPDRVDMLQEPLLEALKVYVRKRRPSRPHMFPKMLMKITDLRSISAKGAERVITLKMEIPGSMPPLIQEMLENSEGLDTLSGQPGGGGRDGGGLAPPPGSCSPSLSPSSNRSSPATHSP

APL cell line NB4 = tested on: APL cell line NB4; parameters: unit not given here; conditions: APL studies, cited from earlier work
HL-60 = HL-60 cell line; Du et al. 2005; read-out: IC50 (inhibitory concentration of 50%), tumor growth; cited from earlier work
MCF-7 = MCF-7 cell line; Du et al. 2005; read-out: IC50 (inhibitory concentration of 50%), tumor growth; cited from earlier work
[1] = As2O3 2 μM, with or without ascorbic acid 100 μM
[2] = As2O3 4 μM, with or without ascorbic acid 100 μM
[3] = thalidomide 5 mg/L, As2O3 4 μM, IL-2 200 IU/ml, alone or combined

| Compound | % Early apoptosis (KG-1a cells; [1]) | % Late apoptosis (KG-1a cells; [1]) | % Live Cells (KG-1a cells; [1]) | % Necrotic Cells (KG-1a cells; [1]) | % Early apoptosis (KG-1a cells; [2]) | % Late apoptosis (KG-1a cells; [2]) | % Live Cells (KG-1a cells; [2]) | % Necrotic Cells (KG-1a cells; [2]) | % Early apoptosis (KG-1a cells; [3]) | % Late apoptosis (KG-1a cells; [3]) | % Necrosis (KG-1a cells; [3]) | cytotoxic effect (in words) (KG-1a cells; [3]) | % Late apoptosis (KG-1a cells; thalidomide 5 mg/L, As2O3 4 μM, IL-2 200 IU/ml, alone or combined, listed as Arsenic trioxide) | concentrations inducing degradation of PML/RAR-α (and wild type PML) (PML/RAR-α fusion protein) | concentrations inducing partial differentiation (APL cell line NB4; low concentrations) | concentrations inducing apoptosis (APL cell line NB4; relatively high concentrations) | % Late apoptosis (KG-1a cells; thalidomide 5 mg/L, As2O3 4 μM, IL-2 200 IU/ml, alone or combined, listed as thalidomide) | IC50 (HL-60) | IC50 (MCF-7) |
| --- | --- | --- | --- | --- | --- | --- | --- | --- | --- | --- | --- | --- | --- | --- | --- | --- | --- | --- | --- |
| arsenic trioxide [As2O3] | 14.50% | 6.88% | 75.94% | 2.68% | 20.87% | 8.31% | 69.56% | 1.26% | 10.095% | 16.965% | 0.59% | modest cytotoxic effect | 16.97% | 0.5-2.0 | 0.1-0.5 | 0.5-2.0 | – | – | – |
| O=C1CCC(N2C(=O)c3ccccc3C2=O)C(=O)N1 (stereo not drawn) [Thalidomide, α-(N-phthalimido) glutarimide] | – | – | – | – | – | – | – | – | 7.92% | 49.385% | 1.155% | – | – | – | – | – | 49.39% | 22.1 ± 2.15 µM | 18.4 ± 2.34 µM |
